Assay results from US20230286973A1, “PROTEIN SECRETION INHIBITORS” (KEZAR LIFE SCIENCES, priority 2020, published 2023).

What was measured:
[1] = test system: PD1-ss+10aa/Gaussia Luciferase; experiment: Dox-Induced PD1-ss-Gluc Assay; assay type: cell-based; settings: 24 hr Dox induction; 293FRT/TO cells; mean; read-out: 24 hr Dox Inducible PD1ssGluc 293FRT/TO: Mean IC50
Method in brief: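 Gaussia luciferase fused downstream of the PD1 signal peptide plus 10 residues was expressed on doxycycline induction in stably transfected Flp-In 293 T-REx cells. Compounds were added with doxycycline and incubated at 37 °C, 5% CO2.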

[2] = test system: TNFα-FL/Gaussia Luciferase; experiment: Dox Induced TNFα-FL-Gluc Assay; assay type: cell-based; settings: for IC50: 24 hr Dox induction, 293FRT/TO cells, mean, read-out: 24 hr Dox Inducible TNFaFLGluc 293FRT/TO: Mean IC50; for 24 hr Dox Inducible TNFaFLGluc 293FRT/TO: TNF/PD1: ratio of TNFaFLGluc IC50 to PD1ssGluc IC50, '<=>' given where both are I.A.
Method in brief: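 Compound was added with doxycycline to cells plated a day earlier, incubating at 37° C under 5% CO2. The reporter line is 293 T-REx expressing a TNFα (1-233)–Gaussia luciferase fusion under tetracycline-regulated control.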

[3] = test system: HER3-ss+4aa/Gaussia Luciferase; experiment: Dox-Induced Her3-ss-Gluc Assay; assay type: cell-based; settings: 24 hr Dox induction; 293FRT/TO cells; mean; read-out: 24 hr Dox Inducible Her3(ss + 4)Gluc 293FRT/TO: Mean IC50
Method in brief: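 Compounds were diluted in DMSO/media containing doxycycline. They were added to Flp-In 293 T-REx cells plated the previous day, then incubated at 37 °C under 5% CO2. These cells stably express, under T-REx control, Gaussia luciferase fused to the HER3 signal sequence plus 4 amino acids.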

[4] = test system: IL-2-FL/Gaussia Luciferase; experiment: Dox Induced IL2-FL-Gluc Assay; assay type: cell-based; settings: for IC50: 24 hr Dox induction, 293FRT/TO cells, mean, read-out: 24 hr Dox Inducible IL2FLGluc 293FRT/TO: Mean IC50; for 24 hr Dox Inducible IL2FLGluc 293FRT/TO: IL2/PD1: ratio of IL2FLGluc IC50 to PD1ssGluc IC50, '<=>' given where both are I.A.
Method in brief: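 Compounds in DMSO/medium with doxycycline were applied to a 293 T-REx stable line expressing an IL-2 (aa 1-153)–Gaussia luciferase fusion under tetracycline-regulated control, cells seeded one day earlier; incubation at 37 °C, 5% CO2. Structures drawn without stereochemistry were tested as stereoisomer mixtures.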

[5] = test system: multiple myeloma cell line NCI-H929; experiment: H929 Cell Viability Assay; assay type: cell-based, human; settings: Homo sapiens, NCI-H929, 48 h, NCI-H929 cells, Celltiter-Glo
Method in brief: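 Luminescent CellTiter-Glo read-out of viability after a 48 h exposure (37° C, 5% CO2) of NCI-H929 myeloma cells to compound dilutions in RPMI 1640 plus 10% FBS. Data for structures drawn without stereochemistry refer to stereoisomer mixtures.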

[6] = test system: multiple myeloma cell line U266B1; experiment: U266 Cell Viability Assay; assay type: cell-based, human; settings: Homo sapiens, U-266, 48 h, U266B1 cells, Celltiter-Glo
Method in brief: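 CellTiter-Glo luminescence was read after a 48 h compound exposure (37 °C, 5% CO2) of human U266B1 myeloma cells grown in 10% FBS-supplemented RPMI 1640. Data for structures shown without defined stereochemistry refer to stereoisomer mixtures.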

[7] = Liver Microsome Stability Assay (rat); settings: rat liver microsomes, with NADPH, 1.0 uM compound
Experimental: (§1) Stability of a compound was assessed in the presence of liver microsomes from various sources—mouse, rat, monkey and human liver microsomes. 1.0 uM compound, 0.4% DMSO in 0.1 M Potassium Phosphate with 1.0 mg/mL liver microsomes, were incubated at 37° C. with or without 1 mM NADPH. The samples were quenched at 0, and 30 minutes.

[8] = Liver Microsome Stability Assay (mouse); settings: mouse liver microsomes, with NADPH, 1.0 uM compound
Experimental: as §1

[9] = Liver Microsome Stability Assay (human); settings: human liver microsomes, with NADPH, 1.0 uM compound
Experimental: as §1

[10] = Liver Microsome Stability Assay (monkey); settings: monkey liver microsomes, with NADPH, 1.0 uM compound
Experimental: as §1

Compound | IC50 [1] [nM] | IC50 [2] [nM] | 24 hr Dox Inducible TNFaFLGluc 293FRT/TO: TNF/PD1 [2] | IC50 [3] [nM] | IC50 [4] [nM] | 24 hr Dox Inducible IL2FLGluc 293FRT/TO: IL2/PD1 [4] | EC50 [5] [nM] | EC50 [6] [nM] | Liver Microsome Stability (Multiple Species): Rat - % Remaining after 30 min w/NADPH [7] [%] | Liver Microsome Stability (Multiple Species): Mouse - % Remaining after 30 min w/NADPH [8] [%] | Liver Microsome Stability (Multiple Species): Human - % Remaining after 30 min w/NADPH [9] [%] | Liver Microsome Stability (Multiple Species): Monkey - % Remaining after 30 min w/NADPH [10] [%]
O=C(Nc1nc([C@H]2CCCN2c2ccccc2)cs1)c1cccn1-c1csc2cnccc12 [Compound C115, (R)-N-(4-(1-phenylpyrrolidin-2-yl)thiazol-2-yl)-1-(thieno[2,3-c]pyridin-3-yl)-1H-pyrrole-2-carboxamide] | 287 | 3530 | 12.3 | 552 | 613 | 2.1 | > 22800 | > 25000 | 2.2 | 1.07 | 1.3 | 0.66
O=C(Nc1nc([C@H]2CCCN2c2ccccc2)cs1)c1cccn1CCCC1COC1 [Compound C116, (R)-1-(3-(oxetan-3-yl)propyl)-N-(4-(1-phenylpyrrolidin-2-yl)thiazol-2-yl)-1H-pyrrole-2-carboxamide] | 1030 | 7540 | 7.3 | 1060 | 1590 | 1.5 | > 25000 | > 25000 | 6.02 | 5.51 | 24.8 | 6.55
CC(=O)Nc1ccc(N2CCC[C@@H]2c2csc(NC(=O)c3cccn3C[C@@H](C)CC#N)n2)cc1 [Compound C117, N-(4-((R)-1-(4-acetamidophenyl)pyrrolidin-2-yl)thiazol-2-yl)-1-((S)-3-cyano-2-methylpropyl)-1H-pyrrole-2-carboxamide] | 25.6 | 275 | 10.7 | 49.6 | 54.3 | 2.1 | 1130 | > 25000 | 16.5 | 7.53 | 9.81 | 4.1
O=C(Nc1nc([C@H]2CCCN2c2ccccc2)cs1)c1cccn1Cc1cccc(F)c1 [Compound C118, (R)-1-(3-fluorobenzyl)-N-(4-(1-phenylpyrrolidin-2-yl)thiazol-2-yl)-1H-pyrrole-2-carboxamide] | 719 | 9780 | 13.6 | 732 | 1010 | 1.4 | > 25000 | > 25000 | 33.5 | 48.1 | 59.7 | 26.9
O=C(Nc1nc([C@H]2CCCN2c2ccccc2)cs1)c1cccn1Cc1ccc(F)cc1 [Compound C119, (R)-1-(4-fluorobenzyl)-N-(4-(1-phenylpyrrolidin-2-yl)thiazol-2-yl)-1H-pyrrole-2-carboxamide] | 2120 | > 25000 | >11.8 | 1510 | 1620 | 0.76 | > 25000 | > 25000 | 49.6 | 42.4 | 61.3 | 23.4
Cc1cccc(Cn2cccc2C(=O)Nc2nc([C@H]3CCCN3c3ccccc3)cs2)c1 [Compound C120, (R)-1-(3-methylbenzyl)-N-(4-(1-phenylpyrrolidin-2-yl)thiazol-2-yl)-1H-pyrrole-2-carboxamide] | 4420 | > 25000 | >5.66 | 1830 | 2060 | 0.47 | > 25000 | > 25000 | 36.8 | 38 | 62.8 | 51.1
O=C(Nc1nc([C@H]2CCCN2c2ccccc2)cs1)c1cccn1Cc1cccc(Br)c1 [Compound C121, (R)-1-(3-bromobenzyl)-N-(4-(1-phenylpyrrolidin-2-yl)thiazol-2-yl)-1H-pyrrole-2-carboxamide] | 2310 | > 25000 | >10.8 | 1210 | 1330 | 0.58 | > 25000 | > 25000 | 50.2 | 52.1 | 64.9 | 44.2
O=C(Nc1nc([C@H]2CCCN2c2ccccc2)cs1)c1cccn1Cc1cccc(Cl)c1 [Compound C122, (R)-1-(3-chlorobenzyl)-N-(4-(1-phenylpyrrolidin-2-yl)thiazol-2-yl)-1H-pyrrole-2-carboxamide] | 1080 | > 25000 | >23.3 | 1000 | 1350 | 1.3 | > 25000 | > 25000 | 52.6 | 50.6 | 75.8 | 52.2
